The source of these data is PubChem BioAssay (NCI).

Where “and” joins values, the source holds several entries; their conditions need not be identical. Equal entries are not always repeated.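 Tested at 5 concentrations; 48 h exposure; 96-well plates; endpoints linearly interpolated, else capped at highest concentration. GI50: concentration for 50% inhibition of growth. TGI: total growth inhibition.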 Where only a bound is given, the exact number is not on record here.

Common to all, as to assay: NCI tumour cell line growth inhibition, 48 h
The test system of test [1] is MDA-N.
Test [2] has as its system DMS 273 small cell lung.
Test [3] concerns RXF-631 renal.
Test [4] has as its system KM20L2 colon.
Test [5] relates to M19-MEL melanoma.
Test [6] deals with HOP-18 NSCLC.
Test [7] concerns SNB-78 CNS.
In test [8] the test system is DMS 114 small cell lung.
Test [9] deals with XF 498 CNS.
The subject of test [10] is P388/ADR leukemia.

Turning to `C/C(=N\NS(=O)(=O)c1ccc(C)cc1)P(=O)(O)O`, the TGI in test [1] is greater than 100 µM.
Regarding `Cc1cccc(C)c1NC(=O)C1C(=O)N(c2c(C)cccc2C)C(=O)/C1=N\N` (stereo not given), the TGI in test [2], in test [3], in test [4], in [5] and in [6] was greater than 100 µM each time.
The compound `COc1cc(N(C)C)c(OC)cc1/C=C\c1ccnc2ccccc12` gave a TGI in [1] of 3.97 µM.
In the case of `CSc1nc(NC2OC(COC(C)=O)C(OC(C)=O)C(OC(C)=O)C2OC(C)=O)c2c(n1)OCC2=O` (stereo not given), the TGI in [7], in [3], in test [8], in [4], in test [5] and in test [6] was greater than 100 µM throughout.
Regarding `Cn1cnc([N+](=O)[O-])c1Sc1nccn1-c1cccc2ccccc12`, the TGI is 77.9 µM in test [7]; 79.8 µM in [2]; 84.2 µM in [3]; 62 µM in test [8]; greater than 100 µM in test [4]; 58.9 µM in test [9]. Besides, the TGI in test [5] is 98.9 µM; in test [6], 8.89 µM.
On to `NCC1OC(n2cnc3c(N)ncnc32)CC1O` (stereo not given), for which, in test [1], the TGI is greater than 100 µM.
Turning to `COC(=O)C(C(=O)OC)C1CCCC(=O)C1` (stereo not given), the TGI in test [7], in test [2], in [4], in test [9], in test [5] and in [6] was greater than 100 µM throughout.
Regarding `O=C(O)CCC(N=Cc1nc(-c2ccccc2)oc1O)C(=O)O` (stereo not given), the TGI in test [7], in test [2], in test [3], in test [8], in test [4] and in test [5] was greater than 100 µM in each case. Besides, the TGI in [6] was greater than 100 µM.
`Cn1cnc([N+](=O)[O-])c1Sc1nc(N)nc2c1ncn2C1CC(O)C(CO)O1` (stereo not given) showed a TGI in test [1] greater than 100 µM.
Take `C[C@]12CC/C(=N\O)C=C1CC[C@@H]1C2CC[C@@]2(C)C1CC[C@@H]2OC1CCCCO1` (stereo not given in full): the TGI was found to be 41.7 µM in test [7]; 32.6 µM in [2]; 46.6 µM in test [8]; 30.4 µM in test [4]; 35.1 µM in test [5]; 30 µM in [6].
Turning to `O=c1c(Br)cc2nc3ccccc3sc-2c1Br`, the TGI in test [7] was greater than 100 µM; in test [2], greater than 100 µM; in [3] it was greater than 100 µM; in [8] it was 34.6 µM; in test [4], greater than 100 µM; in [9] it was 61.8 µM. Further, in [5], the TGI amounted to 32.4 µM.
Take `CCC/C(=N\NC(=S)N1CC2CCC(CC2)C1)c1ccccn1`: the GI50 is 0.408 µM in test [7], 0.0165 µM in [4], 0.0106 µM in [9] and 0.0675 µM in test [6]. The TGI is 8.71 µM in test [7]; 0.374 µM and 2.35 µM in [2]; 0.0981 µM and 0.53 µM in [9]; 0.298 µM and 1.46 µM in test [5]; 0.44 µM and 0.898 µM in [6]; 2.72 µM in test [1].
`O=c1ncc(F)cn1C1OC(CO)C(O)C1O` (stereo not given): the TGI is greater than 100 µM in [7]; greater than 44.6 µM in test [2]; greater than 100 µM in test [3]; greater than 41.9 µM in test [8]; greater than 70.6 µM in test [4]; greater than 100 µM in test [9]. In addition, the TGI was greater than 54 µM in test [5] and greater than 100 µM in test [6].
Turning to `CC(=O)OC[C@@H](COC(=O)/C=C/c1ccc(O)cc1)OC1OC(CO)C(O)C(O)C1O` (stereo not given in full), the TGI in test [7], in [3], in [4], in test [9], in [5] and in [6] was greater than 100 µM each time.
As for `CCOC(=O)N1CCC(=O)C(CNC23CC4CC(CC(C4)C2)C3)C1` (stereo not given), the TGI in test [2] was 52.9 µM; in test [3], greater than 100 µM; in test [4], greater than 100 µM; in [9], 32.8 µM; in test [5], 35.3 µM.
Turning to `CCC[CH2][Sn]1([CH2]CCC)[O]CC(CN(C)Cc2ccccc2)[O]1` (stereo not given), the GI50 in test [7] is 2.14 µM; in [2] it was 4.93 µM; in test [8] it was 4.73 µM; in [4] it was 12 µM; in [9], 3.33 µM; in test [5] it was 6.73 µM. The TGI in [7] is 10.8 µM; in [2] it was 20.5 µM; in test [8], 14.3 µM; in test [4], 26 µM; in test [9] it was 9.77 µM; in [5], 19.8 µM.
As to `O=C(c1ccccc1)C1OC12C(=O)Nc1c(Cl)cc(Cl)cc12` (stereo not given), the TGI in test [7] was 99.9 µM; in test [2], 47.7 µM; in [3] it was greater than 100 µM; in [8], greater than 100 µM; in [4], greater than 100 µM; in [9], 65.1 µM. Also, the TGI in test [5] is greater than 77.6 µM; in test [6], greater than 100 µM.
In [1], `Nc1nc2c(ncn2C2C=CC(CO)C2)c(=O)[nH]1` (stereo not given) returned a TGI greater than 100 µM.
Take `Oc1ccc(C(c2ccc(O)cc2)c2ccc(O)cc2)cc1`: the TGI in test [1] stood at 56 µM.
Turning to `COC(=O)C(C(=O)C(=O)Nc1ccc([N+](=O)[O-])cc1[N+](=O)[O-])c1nc2ccc(Cl)cc2[nH]c1=O` (stereo not given), the TGI in test [7], in test [2], in test [8], in test [4], in test [9] and in [5] was greater than 100 µM in each case. For the same compound, in test [6], the TGI was greater than 100 µM.
Take `CC1CCCC(C(O)CC2CC(=O)NC(=O)C2)C1O` (stereo not given): the TGI in [1] was greater than 100 µM.
Consider `Nc1nnnn1CCO`, for which the TGI in test [1] is greater than 100 µM.
In [1], `C/C1=C/C(=O)O[C@@H]2C[C@@H](CC[C@H](C)/C=C\C=C\CC1)O[C@@](O)([C@@H]1CSC(=O)N1)C2` yielded a TGI greater than 10 µM.
On to `CC(C)([NH-])CO.CC(C)([NH-])CO.[Cl][Cd][Cl]`, for which the GI50 is 13.5 µM in [2]; 19.8 µM in test [8]; 30.9 µM in test [4]; 20.4 µM in [9]; 16.9 µM in [5]. The TGI in test [2] worked out at 30.2 µM; in test [8], 46.7 µM; in test [4], 79.7 µM; in test [9], 69.1 µM; in test [5], 38.3 µM.
On to `CC(C)O/N=C/c1cc(NC(=S)OC(C)C)ccc1Cl`, for which the TGI in test [1] is greater than 100 µM.
In the case of `O=C(O)C1(C(=O)O)CCC1.[NH2-].[NH2-].[Pt+2]`, the GI50 in test [10] was 33.3 µM; in test [7], 96.4 µM; in test [2], 64.7 µM; in test [4], 212 µM; in test [6] it was > 77.3 µM and 111 µM; in [1], 182 µM and > 220 µM. For the same compound, the TGI in test [10] was 218 µM; in test [7], 217 µM; in [2], 228 µM; in [4], greater than 235 µM; in test [6] it was 118 µM; in test [1], greater than 250 µM.
Turning to `Oc1ccc2ccccc2c1N=Nc1ccsc1`, the TGI in test [7], in [2], in test [3], in [8], in test [4] and in [5] was greater than 100 µM each time. In addition, the TGI in [6] was greater than 100 µM.
`Cc1ccc(S(=O)(=O)NC2(C=O)CCCC3CCCCC32)cc1` (stereo not given): the TGI in [7], in test [2], in test [3], in test [8], in test [4] and in test [5] was greater than 100 µM throughout. The TGI in test [6] was greater than 100 µM.
For the compound `C/C(CC(=O)Nc1ccc(C)c(C)c1)=N\NC(N)=O`, the TGI in test [7], in test [8], in test [4] and in [5] was greater than 100 µM throughout.
In the case of `Cc1ccc(NC(=O)CC2Sc3ccccc3NC2=O)c(C)c1` (stereo not given), the TGI in test [7] was 63.2 µM; in [2], 37.5 µM; in test [3], 33.1 µM; in [8] it was 51.7 µM; in test [4], 30.5 µM; in test [9] it was 37.5 µM. For the same compound, the TGI in test [5] is 48.2 µM; in [6] it was 30.2 µM.
On to `O=C(CCN1CCN(c2ccccc2)CC1)N1CCc2c([nH]c3ccccc23)C1c1cccnc1` (stereo not given), for which the TGI in test [7] came to 37 µM; in test [2], 32.3 µM; in [8] it was 27 µM; in test [4], 29.5 µM; in [5], 37.1 µM; in test [6] it was 36.1 µM.
As to `COc1ccc2ccccc2c1C1NC(=O)c2ccccc2N1` (stereo not given), the TGI in test [1] came out at 0.413 µM.
`COC(=O)c1cccn1C(=O)n1cccc1`: the TGI in test [7], in [2], in test [8], in [4], in test [9] and in [5] was greater than 100 µM each time. Besides, the TGI in [6] was greater than 100 µM.
Consider `O=[P+](O)c1ccsc1`, for which the TGI in [2], in test [3], in test [8], in test [4], in test [5] and in [6] was greater than 100 µM each time.
Consider `CC(=O)OC(C)(C)/C(C)=C/C(=O)O[C@H]1C(=O)O[C@@H]2C[C@H]3[C@H](C)C(=O)C(O[C@@H]4O[C@H](CO)[C@@H](O)[C@H](O)[C@H]4O)=C[C@]3(C)[C@H]3[C@@H](O)[C@H](O)[C@@]4(C(=O)O)OC[C@]32[C@@H]14`, for which, in test [1], the GI50 is greater than 100 µM and the TGI was greater than 100 µM.
On to `Cc1cccc(C(C)(C)C)c1NC(=O)CC1C(=O)Nc2ccccc2S1(=O)=O` (stereo not given), for which the TGI amounted to 22.1 µM in test [7]; 14.9 µM in [2]; 22.3 µM in test [4]; 23.1 µM in [9]; 24.8 µM in test [5].
As to `CC12CCC3(OCCO3)C(OC(=O)c3ccccc3)=C1CCC21OCCO1` (stereo not given), the TGI in [7], in test [2], in test [3], in test [8], in test [4] and in test [5] was greater than 100 µM throughout. In test [6], the TGI was greater than 100 µM.
`O=c1[nH]c(=S)[nH]c2c1CN(CCCN1CCOCC1)CN2` yielded a TGI in test [1] greater than 100 µM.
In turn, `CN(C)CCNC(=O)c1cccc(N(C)C(=O)c2ccccc2)c1[N+](=O)[O-]` registered a TGI in [1] greater than 100 µM.
